Laboratory results reported in BindingDB's records for doi:10.1021/acs.jnatprod.6b01177 (Hirosaki University, 2017).

Assays:
[1] = Inhibition of human erythrocyte 20s proteasome trypsin-like activity using Boc-LRR-MCA as substrate pretreated for 10 mins followed by substrate addition measured after 3 hrs by spectrophotometric method
[2] = Inhibition of human erythrocyte 20s proteasome caspase-like activity using Z-LLE-MCA as substrate pretreated for 10 mins followed by substrate addition measured after 3 hrs by spectrophotometric method

- IC50 [1]: > 50 µM
- IC50 [2]: 17.3 µM
Compound: C=C1CC[C@H]2C(C)(C)[C@H](O)CC[C@]2(C)[C@H]1CC1=C(O)C(=O)C2=C(C1=O)[C@@]13C=C[C@@H](O)[C@H](O)[C@]1(C2)C(=O)c1c(O)cc(C)cc1C3=O
